Experimental data taken from article PMC5884652, “New antimicrobial peptide kills drug-resistant pathogens without detectable resistance” (Oncotarget, 2018).
Values after ≈ are worked out from the molar mass of the structure shown.

Experiments:
E. coli CCARM1238 = experiment: microbe, parasite or virus in culture; format: cell-based, Escherichia coli; settings: pH (I or II) not given, 10 mM sodium phosphate buffer, 10% LB, 37° C, 24 h, mean of 3 experiments
From the text: (§1) The method for peptide synthesis has been described in detail previously. E. coli ATCC 25922 (LB media), P. aeruginosa ATCC 15692 (NB+0.5% NaCl media), Listeria monocytogenes ATCC 3710 (LB media), Staphylococcus epidermidis ATCC 12228 (LB media), and S. aureus ATCC 29213 (TSB media) were obtained from the American Type Culture Collection (Manassas, VA, USA). Bacillus subtilis KCTC 1998 (LB media), Salmonella typhimurium KCTC 1926 (NB media), and Proteus vulgaris KCTC 2433 (NB media) were obtained from the Korean Collection for Type Cultures (Jeollabuk-do, Korea). E. coli CCARM 1238 was received from the Culture Collection of Antibiotic Resistant Microbes at Seoul Women’s University, Korea. Drug-resistant P. aeruginosa 3543, 3904, 3547, and 4007 and S. aureus 3126, 0027, 5157, 1635, 4761, 5159, 3359, 2122, 1630, 1870, 3511, 5156, and 3518 were resistant strains isolated from patients with otitis media in a Chonnam National University’s hospital.
(§2) The antibacterial activities of AMPs (melittin, clavaspirin, and its analogs) and conventional antibiotic drugs (erythromycin, gentamicin, ampicillin, and piperacidin) were determined using microdilution assays. Bacterial cells were cultured at 37° C in appropriate culture media at pH 5.5 or pH 7.4 until collection during the mid-log phase and suspended in 10 mM sodium phosphate buffer (pH 5.5 or pH 7.4) supplemented with 10% culture medium. Thereafter, 2× serial dilutions of each peptide (0.25–128 μM) or antibiotic (0.25–256 μM) were added to sterile 96-well plates, and aliquots of cell suspension (5 × 10^5 colony forming units (cfu)/mL) were seeded into each well. The samples were then incubated at 37° C for 24 h. At the end of the incubation, the minimum inhibitory concentrations (MICs) of the peptides were determined using a VERSA Max microplate reader (Molecular Devices Co., Sunnyvale, CA, USA) at a wavelength of 600 nm. […] MIC values were calculated as the mean of 3 independent experiments conducted in triplicate.

P. aeruginosa 3543 = experiment: microbe, parasite or virus in culture; format: cell-based, Pseudomonas aeruginosa; settings: pH (I or II) not given, 10 mM sodium phosphate buffer, 10% LB, 37° C, 24 h, mean of 3 experiments
From the text: as §1, §2

P. aeruginosa 3547 = experiment: microbe, parasite or virus in culture; format: cell-based, Pseudomonas aeruginosa; settings: pH (I or II) not given, 10 mM sodium phosphate buffer, 10% LB, 37° C, 24 h, mean of 3 experiments
From the text: as §1, §2

P. aeruginosa 3904 = experiment: microbe, parasite or virus in culture; format: cell-based, Pseudomonas aeruginosa; settings: pH (I or II) not given, 10 mM sodium phosphate buffer, 10% LB, 37° C, 24 h, mean of 3 experiments
From the text: as §1, §2

P. aeruginosa 4007 = experiment: microbe, parasite or virus in culture; format: cell-based, Pseudomonas aeruginosa; settings: pH (I or II) not given, 10 mM sodium phosphate buffer, 10% LB, 37° C, 24 h, mean of 3 experiments
From the text: as §1, §2

P. aeruginosa ATCC 15692 = format: cell-based, Pseudomonas aeruginosa; settings: pH (I or II) not given; 10 mM sodium phosphate buffer, 10% LB; 37° C, 24 h; mean of 3 experiments
From the text: as §1, with “E. coli ATCC 25922 (LB media), P. aeruginosa ATCC 15692 (NB+0.5% NaCl media), Listeria monocytogenes ATCC 3710 (LB media), Staphylococcus epidermidis ATCC 12228 (LB media), and S. aureus ATCC 29213 (TSB media) were obtained from the American Type Culture Collection (Manassas, VA, USA).” left out
as §2, with “Bacterial cells were cultured at 37° C in appropriate culture media at pH 5.5 or pH 7.4 until collection during the mid-log phase and suspended in 10 mM sodium phosphate buffer (pH 5.5 or pH 7.4) supplemented with 10% culture medium.” left out

[1] = test system: Bacillus subtilis KCTC 1998; format: cell-based; settings: pH (I or II) not given; 10 mM sodium phosphate buffer, 10% LB; 37° C, 24 h; mean of 3 experiments
From the text: as §1, §2

[2] = test system: Listeria monocytogenes ATCC 3710; format: cell-based; settings: pH (I or II) not given; 10 mM sodium phosphate buffer, 10% LB; 37° C, 24 h; mean of 3 experiments
From the text: as §1, §2

[3] = test system: Staphylococcus epidermidis ATCC 12228; format: cell-based; settings: pH (I or II) not given; 10 mM sodium phosphate buffer, 10% LB; 37° C, 24 h; mean of 3 experiments
From the text: as §1, §2

[4] = test system: Proteus vulgaris KCTC 2433; format: cell-based; settings: pH (I or II) not given; 10 mM sodium phosphate buffer, 10% LB; 37° C, 24 h; mean of 3 experiments
From the text: as §1, with “Bacillus subtilis KCTC 1998 (LB media), Salmonella typhimurium KCTC 1926 (NB media), and Proteus vulgaris KCTC 2433 (NB media) were obtained from the Korean Collection for Type Cultures (Jeollabuk-do, Korea).” left out
as §2

[5] = test system: Salmonella typhimurium KCTC 1926; format: cell-based; settings: pH (I or II) not given; 10 mM sodium phosphate buffer, 10% LB; 37° C, 24 h; mean of 3 experiments
From the text: as §1, with “Bacillus subtilis KCTC 1998 (LB media), Salmonella typhimurium KCTC 1926 (NB media), and Proteus vulgaris KCTC 2433 (NB media) were obtained from the Korean Collection for Type Cultures (Jeollabuk-do, Korea).” left out
as §2

S. aureus 0027 = experiment: microbe, parasite or virus in culture; format: cell-based, Staphylococcus aureus; settings: pH (I or II) not given; 10 mM sodium phosphate buffer, 10% LB; 37° C, 24 h; mean of 3 experiments
From the text: as §1, §2

S. aureus 1630 = experiment: microbe, parasite or virus in culture; format: cell-based, Staphylococcus aureus; settings: pH (I or II) not given; 10 mM sodium phosphate buffer, 10% LB; 37° C, 24 h; mean of 3 experiments
From the text: as §1, §2

S. aureus 1635 = experiment: microbe, parasite or virus in culture; format: cell-based, Staphylococcus aureus; settings: pH (I or II) not given; 10 mM sodium phosphate buffer, 10% LB; 37° C, 24 h; mean of 3 experiments
From the text: as §1, §2

S. aureus 1870 = experiment: microbe, parasite or virus in culture; format: cell-based, Staphylococcus aureus; settings: pH (I or II) not given; 10 mM sodium phosphate buffer, 10% LB; 37° C, 24 h; mean of 3 experiments
From the text: as §1, §2

S. aureus 2122 = experiment: microbe, parasite or virus in culture; format: cell-based, Staphylococcus aureus; settings: pH (I or II) not given; 10 mM sodium phosphate buffer, 10% LB; 37° C, 24 h; mean of 3 experiments
From the text: as §1, §2

S. aureus 3126 = experiment: microbe, parasite or virus in culture; format: cell-based, Staphylococcus aureus; settings: pH (I or II) not given; 10 mM sodium phosphate buffer, 10% LB; 37° C, 24 h; mean of 3 experiments
From the text: as §1, §2

S. aureus 3359 = experiment: microbe, parasite or virus in culture; format: cell-based, Staphylococcus aureus; settings: pH (I or II) not given; 10 mM sodium phosphate buffer, 10% LB; 37° C, 24 h; mean of 3 experiments
From the text: as §1, §2

S. aureus 3511 = experiment: microbe, parasite or virus in culture; format: cell-based, Staphylococcus aureus; settings: pH (I or II) not given; 10 mM sodium phosphate buffer, 10% LB; 37° C, 24 h; mean of 3 experiments
From the text: as §1, §2

S. aureus 3518 = experiment: microbe, parasite or virus in culture; format: cell-based, Staphylococcus aureus; settings: pH (I or II) not given; 10 mM sodium phosphate buffer, 10% LB; 37° C, 24 h; mean of 3 experiments
From the text: as §1, §2

S. aureus 4761 = experiment: microbe, parasite or virus in culture; format: cell-based, Staphylococcus aureus; settings: pH (I or II) not given; 10 mM sodium phosphate buffer, 10% LB; 37° C, 24 h; mean of 3 experiments
From the text: as §1, §2

S. aureus 5156 = experiment: microbe, parasite or virus in culture; format: cell-based, Staphylococcus aureus; settings: pH (I or II) not given; 10 mM sodium phosphate buffer, 10% LB; 37° C, 24 h; mean of 3 experiments
From the text: as §1, §2

S. aureus 5157 = experiment: microbe, parasite or virus in culture; format: cell-based, Staphylococcus aureus; settings: pH (I or II) not given; 10 mM sodium phosphate buffer, 10% LB; 37° C, 24 h; mean of 3 experiments
From the text: as §1, §2

S. aureus 5159 = experiment: microbe, parasite or virus in culture; format: cell-based, Staphylococcus aureus; settings: pH (I or II) not given; 10 mM sodium phosphate buffer, 10% LB; 37° C, 24 h; mean of 3 experiments
From the text: as §1, §2

`CC1(C)S[C@@H]2[C@H](NC(=O)[C@H](N)c3ccccc3)C(=O)N2[C@H]1C(=O)O` [ampicillin] was tested, and the MIC (E. coli CCARM1238; Escherichia coli, CCARM1238) was > 800 µM, the MIC (P. aeruginosa 3543; Pseudomonas aeruginosa, 3543) was > 800 µM and the MIC (P. aeruginosa 3547; Pseudomonas aeruginosa, 3547) was 400 µM (≈ 140 µg/mL). The MIC (P. aeruginosa 3904; Pseudomonas aeruginosa, 3904) was > 800 µM and the MIC (P. aeruginosa 4007; Pseudomonas aeruginosa, 4007) was > 800 µM.
In the case of `CC[C@H](C)[C@H](NC(=O)CN)C(=O)NCC(=O)N[C@@H](C)C(=O)N[C@H](C(=O)N[C@@H](CC(C)C)C(=O)N[C@@H](CCCCN)C(=O)N[C@H](C(=O)N[C@@H](CC(C)C)C(=O)N[C@H](C(=O)N[C@H](C(=O)NCC(=O)N[C@@H](CC(C)C)C(=O)N1CCC[C@H]1C(=O)N[C@@H](C)C(=O)N[C@@H](CC(C)C)C(=O)N[C@H](C(=O)N[C@@H](CO)C(=O)N[C@@H](Cc1c[nH]c2ccccc12)C(=O)N[C@H](C(=O)N[C@@H](CCCCN)C(=O)N[C@@H](CCCNC(=N)N)C(=O)N[C@@H](CCCCN)C(=O)N[C@@H](CCCNC(=N)N)C(=O)N[C@@H](CCC(N)=O)C(=O)N[C@@H](CCC(N)=O)C(N)=O)[C@@H](C)CC)[C@@H](C)CC)[C@@H](C)O)[C@@H](C)O)C(C)C)C(C)C` [Melittin], the “MIC, P. aeruginosa” value (P. aeruginosa ATCC 15692) is reported as 2 µM (≈ 5.69 µg/mL), the “MIC, B. subtilis” value [1] is reported as 2 µM (≈ 5.69 µg/mL) and the “MIC, L. monocytogenes” value [2] is reported as 2 µM (≈ 5.69 µg/mL). The “MIC, S. epidermidis” value [3] was 2 µM (≈ 5.69 µg/mL), the “MIC, P. vulgaris” value [4] was 2 µM (≈ 5.69 µg/mL) and the “MIC, S. typhimurium” value [5] was 2 µM (≈ 5.69 µg/mL). The MIC (E. coli CCARM1238) was 2 µM (≈ 5.69 µg/mL), the MIC (P. aeruginosa 3543) was 2 µM (≈ 5.69 µg/mL) and the MIC (P. aeruginosa 3547) was 2 µM (≈ 5.69 µg/mL). The MIC (P. aeruginosa 3904) was 2 µM (≈ 5.69 µg/mL), the MIC (P. aeruginosa 4007) was 2 µM (≈ 5.69 µg/mL) and the MIC (S. aureus 0027) was 2 µM (≈ 5.69 µg/mL). The MIC (S. aureus 1630) was 4 µM (≈ 11.4 µg/mL), the MIC (S. aureus 1635) was 2 µM (≈ 5.69 µg/mL) and the MIC (S. aureus 1870) was 4 µM (≈ 11.4 µg/mL). For the same compound, the MIC (S. aureus 2122) was 4 µM (≈ 11.4 µg/mL), the MIC (S. aureus 3126) was 2 µM (≈ 5.69 µg/mL) and the MIC (S. aureus 3359) was 4 µM (≈ 11.4 µg/mL). The MIC (S. aureus 3511) was 4 µM (≈ 11.4 µg/mL), the MIC (S. aureus 3518) was 4 µM (≈ 11.4 µg/mL) and the MIC (S. aureus 4761) was 4 µM (≈ 11.4 µg/mL). For the same compound, the MIC (S. aureus 5156) was 4 µM (≈ 11.4 µg/mL), the MIC (S. aureus 5157) was 2 µM (≈ 5.69 µg/mL) and the MIC (S. aureus 5159) was 8 µM (≈ 22.8 µg/mL).
